Assay results published in patent US20110223202A1, “CATIONIC CORE-SHELL PEPTIDE NONOPARTICLES” (priority 2007, published 2011).
In brackets after ≈: the same amount, converted by molar mass. Where two headings read alike, the source gives them in different places. No end group written: not given here.

Experiments:
Assay type in all cases: cell-based
Bacillus subtilis = test: microbe, parasite or virus in culture; settings: read-out: MIC against Bacillus subtilis
Method: Bacillus subtilis, Candida albicans and Stachybotrys chartarum (ATCC) were grown in tryptic soy broth at 37° C., yeast mold broth at 24° C. and tryptic soy broth at 26° C., respectively. The MICs of the peptides or peptide nanoparticles were measured using a broth microdilution method. Briefly, 50 μL of peptide and peptide nanoparticle solutions with a concentration of 7.1 to 142 μM was placed into each well of 96-well plates. 50 μL of microorganism solution was added to each well to give an optical density reading of 0.1 to 0.2 at 600 nm. […] Broth containing cells alone was used as control. The tests were repeated three times.

Candida albicans = settings: broth microdilution, no growth observed
Method: (§1) Bacillus subtilis, Candida albicans and Stachybotrys chartarum (ATCC) were grown in tryptic soy broth at 37° C., yeast mold broth at 24° C. and tryptic soy broth at 26° C., respectively. The MICs of the peptides or peptide nanoparticles were measured using a broth microdilution method. Briefly, 50 μL of peptide and peptide nanoparticle solutions with a concentration of 7.1 to 142 μM was placed into each well of 96-well plates. 50 μL of microorganism solution was added to each well to give an optical density reading of 0.1 to 0.2 at 600 nm. The cell cultures were then incubated for 15, 12/16 and 170 hours for Bacillus subtilis, Candida albicans and Stachybotrys chartarum respectively, and the MIC was taken at the concentration at which no growth was observed. Broth containing cells alone was used as control. The tests were repeated three times.

Stachybotrys chartarum = test: microbe, parasite or virus in culture; settings: broth microdilution, no growth observed, read-out: MIC against Stachybotrys chartarum
Method: as §1

rat red blood cells = test: Hemolysis assay; settings: at concentrations lower than its MIC
Method: Fresh rat red blood cells were washed with PBS for three times. 100 μL of red blood cells suspended in PBS (4% in volume) was placed in each well of 96-well plates and 100 μL of peptide nanoparticle or amphotericin B solution was added to each well. The plates were incubated for one hour at 37° C. The cell suspensions were taken out and centrifuged at 1000 g for 5 minutes. Aliquots (100 μL) of supernatant were transferred to 96-well plates, and hemoglobin release was monitored at 576 nm using a microplate reader (Bio-Teck Instruments, Inc). Percentage of hemolysis was calculated using the following formula: Hemolysis (%)=[(O.D.576 nm in the nanoparticle solution−O.D.576 nm in PBS)/(O.D.576 nm in 0.1% Triton X-100−O.D.576 nm in PBS)]×100. In vivo studies.

[1] = broth microdilution, no growth observed

| Compound | MIC (Bacillus subtilis; [1]) | MIC against Candida albicans (Candida albicans) | further results |
| --- | --- | --- | --- |
| N=C(N)NCCC[C@H](NC(=O)[C@H](CCCNC(=N)N)NC(=O)[C@H](CCCNC(=N)N)NC(=O)[C@H](CCC(N)=O)NC(=O)[C@H](CCCNC(=N)N)NC(=O)[C@H](CCCNC(=N)N)NC(=O)[C@H](CCCCN)NC(=O)[C@H](CCCCN)NC(=O)[C@H](CCCNC(=N)N)NC(=O)CNC(=O)[C@H](Cc1ccc(O)cc1)NC(=O)CNC(=O)CNC(=O)CN)C(N)=O [G3TAT] | 290.0 µM (≈ 502 µg/mL) | 289.0 µM (≈ 500 µg/mL) | – |
| CC1(C)S[C@@H]2[C@H](NC(=O)Cc3ccccc3)C(=O)N2[C@H]1C(=O)O [penicillin G] | – | – | MIC (Bacillus subtilis; FIG. 12, 16 hours of incubation): 1074 µM (≈ 359 µg/mL) |
| N=C(N)NCCC[C@H](NC(=O)[C@H](CCCNC(=N)N)NC(=O)[C@H](CCCNC(=N)N)NC(=O)[C@H](CCCNC(=N)N)NC(=O)[C@H](CCCNC(=N)N)NC(=O)[C@H](CCCNC(=N)N)NC(=O)[C@H](CCCNC(=N)N)NC(=O)[C@H](CCCNC(=N)N)NC(=O)[C@H](CCCNC(=N)N)NC(=O)[C@H](CCCNC(=N)N)NC(=O)[C@H](CCCNC(=N)N)NC(=O)[C@H](CCCNC(=N)N)NC(=O)CNC(=O)CNC(=O)CN)C(N)=O [G3R12] | 242.0 µM (≈ 499 µg/mL) | 242.0 µM (≈ 499 µg/mL) | – |
| GGGRRRRRRYGRKKRRQRRR-NH2 [G3R6TAT] | 75.0 µM | 75.0 µM | – |
| C[C@@H]1[C@H](O)[C@@H](C)/C=C/C=C/C=C/C=C/C=C/C=C/C=C/[C@H](O[C@@H]2O[C@H](C)[C@@H](O)[C@H](N)[C@@H]2O)C[C@@H]2O[C@](O)(C[C@@H](O)C[C@@H](O)[C@H](O)CC[C@@H](O)C[C@@H](O)CC(=O)O[C@H]1C)C[C@H](O)[C@H]2C(=O)O [amphotericin B] | – | – | MIC (Stachybotrys chartarum): > 54.0 µM; hemolysis (rat red blood cells): more than 90% |
| C[C@H]1c2cccc(O)c2C(=O)C2=C(O)[C@]3(O)C(=O)C(C(N)=O)=C(O)[C@@H](N(C)C)[C@@H]3[C@@H](O)[C@@H]21 [doxycycline] | – | – | MIC (Bacillus subtilis; Bacillus subtilis, FIG. 12, 16 hours of incubation): 13.5 µM (≈ 6 µg/mL) |
| GGGRRRRRR-NH2 (C-terminus assumed) [G3R6] | > 444.4 µM | > 444.4 µM | – |
| OC(Cn1cncn1)(Cn1cncn1)c1ccc(F)cc1F [fluconazole] | – | – | MIC (Stachybotrys chartarum; Stachybotrys chartarum): > 817 µM |
